{"source": "patent US20120003329A1", "about": "“Use of A2B Adenosine Receptor Antagonists for Treating Pulmonary Hypertension” (Gilead Sciences, Inc., priority 2010, published 2012)", "key": {"HPAECs [1]": {"system": "HPAECs", "assay": "Endothelin-1 release from HPAECs (ELISA)", "type": "cell-based, human", "conditions": "NECA 10 μM with Compound A 100 nM, 18 hr", "procedure": "(§1) HPASM were grown in smooth muscle growth medium (SMGM-2). HPAECs were grown in endothelium growth medium (EGM-2). Before treatment, cells were seeded in 24-well plates and allowed to grow to ˜80% confluency. Cells were washed and then incubated in serum free basal medium in the absence or presence of adenosine receptor agonists and antagonists. In the proliferation assays, HPASM were incubated in 50% medium collected from HPAEC cells treated with vehicle or NECA.\n(§2) IL-6 and G-CSF were measured using human 30-plex luminex kit from Invitrogen (Carlsbad, Calif.). IL-8, endothelin-1, thromboxane B2 were measured using ELISA (kits obtained from Invitrogen, AssayDesigns (Ann Arbor, Mich.), and Caymen Biomedicals (Ann, Arbor, Mich.) respectively).\nHPAECs were incubated in the absence or presence of NECA at various concentrations (0.1 μM, 1 μM, and 10 μM) and Compound A (100 nM) for 18 hours. The amount of ET-1, provided in pg/mL was measured by the ELISA protocol discussed above."}, "HPASMs [2]": {"system": "HPASMs", "assay": "Smooth muscle cell migration, Boyden chamber with conditional media", "type": "cell-based, human", "conditions": "conditional medium from HPASMs, NECA 10 μM and Compound A 100 nM, 18 hours; migration 24 hours", "procedure": "Conditional media were collected from HPASMs treated with vehicle, NECA (10 μM), NECA (10 μM) and Compound A (100 nM), or NECA (10 μM) and an anti-IL-6 antibody (1 ng/mL, purchased from Invitrogen) for 18 hours were added to the lower wells of Boyden chamber assay systems as chemoattractants. HPASMs were allowed to migrate for 24 hours. […] It was also observed that IL-8 neutralizing antibody had no effect on cell migration. […] The released IL-6 in turn enhances smooth muscle cell migration (see FIG. 10B for illustration)."}, "HPASMs [3]": {"system": "HPASMs", "assay": "Cytokine release from HPASMs (IL-6, IL-8, G-CSF)", "type": "cell-based, human", "conditions": "NECA 10 μM with Compound A 100 nM, 18 hr", "procedure": "as §1, §2\n(§3) HPASMs were incubated in the absence or presence of NECA at various concentrations (0.1 μM, 1 μM, and 10 μM) and Compound A (100 nM) for 18 hours."}, "[4]": {"system": "adenosine deaminase (ADA)-deficient mouse model of adenosine-dependent pulmonary injury", "assay": "Vascular wall thickening in the lungs of ADA-deficient mice (H&E staining)", "type": "in vivo", "conditions": "1 mg/kg intraperitoneal twice daily for 14 days, lungs at postnatal day 38", "source_text": "The model system being used is the adenosine deaminase (ADA)-deficient mouse model of adenosine-dependent pulmonary injury.\nThis example follows the protocol described in Sun C X, et al. “Role of A2B adenosine receptor signaling in adenosine-dependent pulmonary inflammation and injury,” J. Clin. Invest., 116(8):2173-2182 (2006), which is hereby incorporated by reference.\nAll ADA-deficient mice were maintained on ADA enzyme therapy from birth to postnatal day 21 to prevent defects in alveolar development. Banerjee, et al. Am. J. Respir. Cell Mol. Biol. 30-38-50 (2004). ADA enzyme therapy was discontinued at postnatal day 21, and 3 days later the mice were given intraperitoneal injections of 1 mg/kg of Compound A twice daily for 14 days.\nLungs were collected from postnatal day 38 mice and prepared routinely for sectioning and H&E staining Tissues were taken from control (ADA+) mice (FIG. 3A), the ADA-deficient mice (FIG. 3B), and the ADA-deficient mouse treated with Compound A (FIG. 3C). Sections are representative of 6-8 different mice from each treatment group."}, "HPASMs [5]": {"system": "HPASMs", "assay": "Thromboxane B2 release from HPASMs (ELISA)", "type": "cell-based, human", "conditions": "NECA 10 μM with Compound A 100 nM, 18 hours", "procedure": "as §1, §2, §3"}, "HPASMs [6]": {"system": "HPASMs", "assay": "Expression of collagen, extracellular matrix proteins and enzymes, real-time RT-PCR array", "type": "cell-based, human", "conditions": "NECA 10 μM together with Compound A 100 nM, 1.5 hours", "procedure": "(§4) Gene expression was determined using real-time RT-PCR with Stratagene PCR equipment (La Jolla, Calif.). Zhong H., et al. “A2B adenosine receptors increase cytokine release by bronchial smooth muscle cells, “American Journal of Respiratory Cell and Molecular Biology, 30(1): 118-125 (2004).\nHPASMs were incubated in the presence of NECA (10 μM) or NECA (10 μM) together with Compound A (100 nM) for 1.5 hours. A real-time-RT-PCR array focusing on genes involved in tissue remodeling were conducted on the RNAs isolated from the HPASMs. NECA increased the mRNA expression of ADAMTS1, ADAMTS8, CDH1, MMPI, MMP12, HAS1, ITGA7, COL1A1, COL8A1 and CTGF (FIG. 12A-B)."}, "HPASMs [7]": {"system": "HPASMs", "assay": "NECA-induced expression of NOTCH3 in HPASMs (real-time RT-PCR)", "type": "cell-based, human", "conditions": "NECA 10 μM along with Compound A 100 nM, 1.5 hours", "procedure": "as §4\nHPASMs were incubated with NECA (10 μM) or NECA (10 μM) along with Compound A (100 nM) for 1.5 hours. The expression of NOTCH3 was measured by quantitive real-time RT-PCR using the methodologies described above."}, "HPASMs [8]": {"system": "HPASMs", "assay": "Effect of NECA-activated HPAECs on proliferation of HPASMs (cell count)", "type": "cell-based, human", "conditions": "supernatant of HPAECs treated with NECA 10 μM and Compound A 100 nM for 18 hours; HPASMs 18 hours", "procedure": "as §1\nCell supernatants were collected from HPAECs treated with vehicle (control medium), NECA (10 μM, NECA medium) or NECA and Compound A (100 nM) for 18 hours. These cell supernatants (diluted 1:1 in […] basal medium) with or without ambrisentan (30 nM) were used to incubate HPASMs for 18 hours. Cells were counted. NECA-HPAEC medium increased cell number of HPASMs at 18 hours compared to control-HPAEC medium."}, "HPAECs [9]": {"system": "HPAECs", "assay": "Release of IL-8 in endothelial cells (ELISA)", "type": "cell-based, human", "conditions": "NECA 10 μM with Compound A 100 nM, 18 hr", "procedure": "as §1, §2\nHPAECs were incubated in basal medium in the absence or presence of NECA (N-ethylcarboxamide adenosine) at various concentrations (0.1 μM, 1 μM, and 10 μM) and Compound A (100 nM) for 18 hours. NECA is a known adenosine agonist of A1 and A2 subtypes. The amount of IL-8, provided in pg/mL, was measured by ELISA."}, "[10]": {"system": "Male C57BL6 mice treated with bleomycin (BLM)", "assay": "Bleomycin-induced pulmonary hypertension associated with chronic lung disease in mice", "type": "in vivo", "procedure": "Methods: Male C57BL6 mice were treated with bleomycin (BLM) at 0.035 units per mouse, or vehicle (phosphate buffered saline (PBS)) intra-peritoneally twice weekly for 4 weeks. When pulmonary fibrosis was established, on day 15, mice were provided with special chow containing an A2B receptor antagonist, Compound A (˜10 mg/kg/day dose), for the next 18 days (FIG. 15). In contrast, control groups received normal chow.\nOn day 33, right ventricle systolic pressure (RVSP), systemic blood pressure, heart rate and lung function measurements were performed. Additionally, the lungs were collected for immunohistochemistry (IHC) for α-smooth muscle actin (αSMA).\nStatistical Analysis: All data were analyzed using a 1-way ANOVA with a Newman-Keuls post test. The software used to conduct the statistical analysis was Graph-Pad Prism v5.00 (La Jolla Calif.). In all related figures, significance levels: *P<0.05, **[…]<P<0.01, ***P<0.001 refer to comparisons between PBS and BLM groups; significance levels: #P<0.05, # # 0.001<P<0.01, # # # P<0.001 refer to comparisons between BLM and BLM+Compound A groups. All values in the figures represent mean±SEM (standard error or the mean) for 5-8 mice per group."}, "[11]": {"conditions": "mice, Compound A ~10 mg/kg/day in chow day 15 to 33, day 33"}, "[12]": {"conditions": "mice, Compound A ~10 mg/kg/day in chow day 15 to 33, α-SMA immunostaining"}, "[13]": {"conditions": "mice, Compound A ~10 mg/kg/day in chow, Flexivent"}}}
{"smiles": "CCCn1c(=O)c2[nH]c(-c3cnn(Cc4cccc(C(F)(F)F)c4)c3)nc2n(CC)c1=O", "note": "[Compound A, 3-ethyl-1-propyl-8-(1-(3-(trifluoromethyl)benzyl)-1H-pyrazol-4-yl)-1H-purine-2,6(3H,7H)-dione]", "values": [{"measurement": "NECA-induced release of ET-1", "setting": "HPAECs [1]", "value": "markedly reduced"}, {"measurement": "NECA-induced increase in smooth muscle cell migration", "setting": "HPASMs [2]", "value": "inhibited"}, {"measurement": "NECA-induced release of G-CSF", "setting": "HPASMs [3]", "value": "markedly reduced"}, {"measurement": "NECA-induced release of IL-6", "setting": "HPASMs [3]", "value": "markedly reduced"}, {"measurement": "NECA-induced release of IL-8", "setting": "HPASMs [3]", "value": "markedly reduced"}, {"measurement": "vascular wall thickening", "setting": "[4]", "value": "drastically reduced"}, {"measurement": "NECA-induced release of thromboxane B2", "setting": "HPASMs [5]", "value": "markedly reduced"}, {"measurement": "NECA-induced mRNA expression of ADAMTS1, ADAMTS8, CDH1, MMPI, MMP12, HAS1, ITGA7, COL1A1, COL8A1 and CTGF", "setting": "HPASMs [6]", "value": "reduced"}, {"measurement": "increase of NOTCH3 expression induced by NECA", "setting": "HPASMs [7]", "value": "inhibited"}, {"measurement": "NECA induced proliferation of HPASMs", "setting": "HPASMs [8]", "value": "inhibited"}, {"measurement": "NECA-induced release of IL-8", "setting": "HPAECs [9]", "value": "markedly reduced"}, {"measurement": "BLM-decreased arterial oxygenation levels", "setting": "[10]; awake mice, Compound A ~10 mg/kg/day in chow, pulse oximetry", "value": "attenuated"}, {"measurement": "BLM-induced increase of interleukin (IL)-6 level", "setting": "[10]; mice, BALF and plasma, day 33, ELISA, Compound A ~10 mg/kg/day in chow", "value": "significantly attenuated"}, {"measurement": "BLM-induced increase in peri-vascular fibrosis (total collagen levels in the lung)", "setting": "[10]; mice, Compound A ~10 mg/kg/day in chow day 15 to 33, Masson's trichrome", "value": "attenuated"}, {"measurement": "BLM-induced increase in RV hypertrophy", "setting": "[10]; [11]", "value": "attenuated"}, {"measurement": "BLM-induced increase in RVSP", "setting": "[10]; [11]", "value": "attenuated"}, {"measurement": "BLM-induced increase in extent of vascular muscularization", "setting": "[10]; [12]", "value": "attenuated"}, {"measurement": "BLM-induced increase in number of muscularized vessels", "setting": "[10]; [12]", "value": "attenuated"}, {"measurement": "BLM-increased dynamic resistance of the lungs", "setting": "[10]; [13]", "value": "attenuated"}, {"measurement": "BLM-increased quasi-static elastance", "setting": "[10]; [13]", "value": "attenuated"}, {"measurement": "BLM-increased tissue damping", "setting": "[10]; [13]", "value": "attenuated"}, {"measurement": "BLM-induced increase of ET-1", "setting": "[10]; mice, plasma (ELISA) and pulmonary vessel wall, Compound A ~10 mg/kg/day in chow", "value": "significantly attenuated"}]}
